Measurements reported in patent US20260216205A1, “SYSTEMS AND METHODS FOR TREATING HEART FAILURE WITH PRESERVED EJECTION FRACTION” (INVIVOSCIENCES INC., priority 2023, published 2026).
“Also recorded” adds a separate entry of the source.

How the values were obtained:
alpha-1 adrenoceptors = settings: read-out: IC50, affinity for alpha-1 adrenoceptors; cited from earlier work
[1] = test system: engineered heart tissues (EHTs) derived from human induced pluripotent stem cells; test: Long-term fasudil effects on engineered heart tissues (EHTs) with and without TGFβ, stress versus strain; format: cell-based
Procedure: FIGS. 16A-16D graphically illustrate the long-term effects of fasudil. The rates of stretch relative to the unstretched tissue length are depicted as strain (error bar=standard deviation of error). Number of samples are 2 or 4 in each condition.
To exemplify this patient stratification process, engineered heart tissues (EHTs) were prepared, the tissues containing cardiac fibroblasts (10% of cardiomyocytes at fabrication) derived from human induced pluripotent stem cells (iPSCs). Five days post-fabrication, one half of the engineered heart tissues (EHTs) was cultured regularly (FIG. 16A and FIG. 16C), and the other half was treated with 1 ng/mL TGFβ (FIG. 16B and FIG. 16D). […] The effect was clearly represented in the elevated passive stress-strain curve and its slope represented by the closed circles (0 μM fasudil data points) in FIG. 16C and FIG. 16D.
After 15 days, the EHTs, both with and without TGFβ treatment, were administered fasudil at concentrations of […] (FIGS. 16A-16D). […] However, by day 29, fasudil reduced cardiac contractility in EHTs, irrespective of TGFβ treatment.

[2] = test system: human micro-heart tissues (NuHeart); test: Mature NuHeart micro-heart tissue with and without TGFβ: length-tension, contractile force, ISO response, αSM actin; format: cell-based
Procedure: FIG. 11C-11F graphically show length-tension relationships of cardiac systolic ([…]) and diastolic (FIG. 10E, FIG. 10F) curves, monitored>30 days with and without TGFβ (10 ng/mL).
FIG. 11G is a bar graph illustrating that the positive inotropic response to ISO ([…]) were compared with and without TGFβ (bars=s.d., n=7) at the end of 35-day tissue development.
FIG. 11I-11J show profiles of cardiac contractile force with and without TGFβ.
A semi-automated, multi-point quality control (QC) production-process fabricated mature micro-heart tissues in 96-well format. The patient-derived (or gene-edited) iPSCs that were passed the QC test of pluripotency and purity go through the next step. This robust protocol of iPSC differentiation produced cardiomyocytes and non-muscle cells. Various parameters were optimized to produce highly purified (>95%) cardiomyocytes and cardiac non-muscle cells. Various differentiation techniques, a culture robot ACTRO™, and culture media may be used for cardiomyocyte (CM) differentiation and maintenance development and validation. FIGS. 9A-9D show mass-produced micro-heart tissues and their mature phenotype, which were assessed for their response to various positive inotropic and chronotropic agents (FIGS. 10A-10D). To grow mature micro-heart tissue, physiological (15% strain=~2.13 μm sarcomere length) stretching cycles were applied, in addition to constant bi-phasic, low energy (5-10 V, 1 ms duration) electrical stimulation, and maturation medium containing appropriate concentrations and combinations of fatty acids and other factors, including triiodothyronine, dexamethasone, taurine, creatine, and L-carnitine were used.
Human micro-heart tissues cultured for 35 days with electrical stimulation matured and loose its spontaneous beating. Myocardial fibrosis is more prevalent in HFpEF than in control, and Transforming growth factor beta (TGFβ) is a major profibrotic factor. […] The elevated diastolic stiffness and loss of contractile reserve are common in HFpEF patients. Some HFpEF patients, including hypertrophic cardiomyopathy, show a hypercontractile phenotype. A TGF-β signaling pathway in the pathogenesis of diabetes mellitus (DM) is well-known. Moreover, in rat models, the presence of diabetes led to the induction of a fetal gene program, typically seen in the setting of TGF-β over-expression and hypertrophy. Therefore, human induced pluripotent stem cell (iPSC) derived micro-heart tissue (NuHeart™ micro-heart tissue) will be used with TGFβ-treatment as a base of the proposed studies.
A force probe stretching approach was used to record the length-tension relationship to analyze cardiac contractility and stiffness of micro-heart tissue. Micro force-transducers (FIG. 11) of the mechanical assay device, Palpator™, measured resistance forces that were required to stretch micro-heart tissue growing in 96-well plates. As the probe moved down by a motorized arm, samples' cardiac contractile and baseline forces were measured at different tissue lengths. Sarcomere length was calibrated to strain (% of stretch over original sample length) according to a published protocol (Asnes, C. F. et al. Biophys. J. 2006. 91(5): pp. […]). (Fourier analysis of sarcomere patterns in fixed micro-heart tissue). In addition, other biological indicators such as calcium transients and action potential are measured using biological indicator dyes and high throughput microplate readers (FIGS. 13A-C). For example, micro-heart tissue with cardiomyocytes derived from gene-edited iPSC-derived cardiomyocytes was fabricated with a cardiac troponin T R92Q mutation (familial hypertrophic cardiomyopathy, i.e., “[…]”).

[3] = test system: tissue constructs reconstituted with human fibroblasts / myofibroblasts; test: Biomechanical phenotyping assay: isometric force on stretched bioengineered tissue constructs; format: cell-based
Description: Fasudil (FIG. 1) is a small molecule inhibitor of Rho-kinase (ROCK) that regulates its downstream signal transduction pathways and biological activities, including smooth muscle cells' contractility. InvivoSciences's biomechanical phenotyping assay recorded isometric force by stretching bioengineered tissue-constructs (see, U.S. Pat. No. 10,732,174). The tissue constructs were reconstituted with human fibroblasts that recapitulate connective tissues. Those tissue constructs reconstituted with myofibroblasts recapitulate connective tissue developing fibrosis.

[4] = test system: human micro-heart tissues (iPSC-derived cardiomyocytes and non-muscle cells, mainly fibroblasts); test: Biomechanical assay (length-tension) on micro-heart tissue constructs; format: cell-based; settings: for micro-heart tissue construct's stiffness (diastolic/passive stiffness): FIG. 7B
Description: The micro-heart tissue fabrication process produced micro-heart tissues using human cardiomyocytes derived from induced pluripotent stem cells (iPSCs) and non-muscle cells, mainly fibroblasts. Therefore, fasudil is a promising drug candidate to reduce elevated diastolic stiffness of patients with heart failure with preserved ejection fraction (HFpEF). The development of fibrosis in the heart is observed in various types of cardiomyopathies, and heart failure (HF). Myocardial interstitial fibrosis, for example, contributes to left ventricular dysfunction leading to the development of heart failure. Fibrotic myocardium becomes stiffer than healthy tissue to develop diastolic dysfunction. Fasudil targets Rho-kinase (ROCK) that regulates the activity of non-muscle myosin independent of calcium homeostasis. Human cardiac fibroblasts express ROCK1 and ROCK2, which both regulate non-muscle cell contractility similarly. The reduction of ROCK2 had notable effects on the profibrotic gene (FIGS. 7A-B) and protein expression (FIGS. 7A-B).
A force probe stretching approach was used to record the length-tension relationship to analyze cardiac contractility and stiffness of micro-heart tissue. Micro force-transducers (FIG. 11) of the mechanical assay device, Palpator™, measured resistance forces that were required to stretch micro-heart tissue growing in 96-well plates. As the probe moved down by a motorized arm, samples' cardiac contractile and baseline forces were measured at different tissue lengths. Sarcomere length was calibrated to strain (% of stretch over original sample length) according to a published protocol (Asnes, C. F. et al. Biophys. J. 2006. 91(5): pp. 1800-1180). (Fourier analysis of sarcomere patterns in fixed micro-heart tissue). In addition, other biological indicators such as calcium transients and action potential are measured using biological indicator dyes and high throughput microplate readers (FIGS. 13A-C). […]

[5] = test system: engineered heart tissues (EHTs) derived from human induced pluripotent stem cells; test: Long-term fasudil effects on engineered heart tissues (EHTs) with and without TGFβ, stress versus strain; format: cell-based; settings: short-term administration (less than 24 hours)
[6] = intravenous formulations; Satoh et al., Life Sci 2001; cited from earlier work
[7] = TGFβ-treated micro-heart (10 ng/mL, monitored >30 days)
[8] = NuHeart micro-heart tissue without TGFβ
[9] = long-term administration (3-14 days)

Compound: CN1CCN(C2=Nc3cc(F)ccc3Cc3ccccc32)CC1 [Fluperlapine]
- IC50 (alpha-1 adrenoceptors): ~0.01 µM

Compound: Transforming growth factor beta [TGFβ]
- passive stiffness of EHTs ([1]; 1 ng/mL TGFβ from five days post-fabrication, 0 μM fasudil): increased
- αSM actin expression ([2]; TGFβ treated sample, Western blot): increased expression; also recorded: elevated
- cardiac contractility of micro-heart [2, 7]: increasing
- diastolic stress (stiffening) of micro-heart [2, 7]: increasing
- ISO-induced positive inotropic and chronotropic responses ([2]; chronic TGFβ treatment): impaired

Compound: CC(C)NCC(O)c1ccc(O)c(O)c1 (stereo not shown) [ISO, isoproterenol]
- contractile amplitude [2, 8]: increased
- duration of contraction (chrotropic response) [2, 8]: shortened
- response of mature micro-heart tissues ([2]; after isoproterenol (ISO) treatment): positive inotropic and chronotropic responses
- response of contractile force to ISO ([2]; micro-heart tissue with TGFβ): blunted response

Compound: O=S(=O)(c1cccc2cnccc12)N1CCCNCC1 [fasudil, Fasudil]
- contractility of tissue constructs [3]: reduced
- tissue stiffness of tissue constructs [3]: reduced
- cardiac contractility of the micro-heart tissues ([4]; FIG. 7A): did not change
- micro-heart tissue construct's stiffness (diastolic/passive stiffness) [4]: reduced the micro-heart tissue construct's stiffness dose-dependently
- micro-heart tissue construct's stiffness (diastolic/passive stiffness) ([4]; listed as Fasudil): reduced
- cardiac contractility in TGFβ-treated EHTs ([1]; 10 μM fasudil, by day 29): substantially reduce
- effect on passive stiffness, TGFβ-treated tissues versus untreated ([1]; TGFβ-treated (1 ng/mL) EHTs): more pronounced effect
- passive stiffness of EHTs ([1]; both with and without TGFβ (1 ng/mL) treatment, fasudil 1, 3, 10 µM): effectively reduced
- cardiac contractility in EHTs ([1]; by day 29, irrespective of TGFβ treatment): reduced
- cardiac contractility in EHTs [1, 9]: reduce
- passive stiffness in EHTs [1, 9]: reduce
- impact on cardiac contractility ([1]; one day after treatment (data not shown)): less significant
- cardiac contractility in EHTs [5]: without significantly affecting
- passive stiffness in EHTs [5]: effectively reduced
- plasma concentration [6]: approximately 0.36 μM
